Common to all, as to format: cell-based
In one test the target is IGF-1R (Homo sapiens, UniProt P08069). The experiment in a line: IGF-1R phosphorylation ELISA in MCF-7/HER2-18 cells. The arrangement: endogenous in cells; host or cells: MCF-7/HER2-18. Particulars: 3 nM IGF-I 10 min.
In the next test the test system is MCF-7/neo cells. The experiment in a line: Tamoxifen and/or NDGA growth inhibition of MCF-7/neo cells (CyQuant). Particulars: Homo sapiens, MCF7, 144 h; MCF-7/neo cells, tamoxifen 100 nM, 6 days. How it is done: (§1) Cells were estrogen-starved for three days in DMEM containing 10% charcoal-[…]-stripped FCS (CDSS) prior to their plating in 96 well plates. Cells were plated in 100 μl of the same media, allowed to adhere overnight, and then were switched to DMEM+10% CDSS supplemented with 100 pM estrogen. […] The media and inhibitors were refreshed on day 3, the cultures were harvested on day 6, and a CyQuant assay was performed as described above.

Another test deals with MCF-7/HER2-18 cells. The test can be described thus: Tamoxifen and/or NDGA growth inhibition of MCF-7/HER2-18 cells (CyQuant). Particulars: Homo sapiens, 144 h; MCF-7/HER2-18 cells, tamoxifen 100 nM, 6 days. As for the experimental part:
as §1

Chain of IGF-1R (P08069 31-1367): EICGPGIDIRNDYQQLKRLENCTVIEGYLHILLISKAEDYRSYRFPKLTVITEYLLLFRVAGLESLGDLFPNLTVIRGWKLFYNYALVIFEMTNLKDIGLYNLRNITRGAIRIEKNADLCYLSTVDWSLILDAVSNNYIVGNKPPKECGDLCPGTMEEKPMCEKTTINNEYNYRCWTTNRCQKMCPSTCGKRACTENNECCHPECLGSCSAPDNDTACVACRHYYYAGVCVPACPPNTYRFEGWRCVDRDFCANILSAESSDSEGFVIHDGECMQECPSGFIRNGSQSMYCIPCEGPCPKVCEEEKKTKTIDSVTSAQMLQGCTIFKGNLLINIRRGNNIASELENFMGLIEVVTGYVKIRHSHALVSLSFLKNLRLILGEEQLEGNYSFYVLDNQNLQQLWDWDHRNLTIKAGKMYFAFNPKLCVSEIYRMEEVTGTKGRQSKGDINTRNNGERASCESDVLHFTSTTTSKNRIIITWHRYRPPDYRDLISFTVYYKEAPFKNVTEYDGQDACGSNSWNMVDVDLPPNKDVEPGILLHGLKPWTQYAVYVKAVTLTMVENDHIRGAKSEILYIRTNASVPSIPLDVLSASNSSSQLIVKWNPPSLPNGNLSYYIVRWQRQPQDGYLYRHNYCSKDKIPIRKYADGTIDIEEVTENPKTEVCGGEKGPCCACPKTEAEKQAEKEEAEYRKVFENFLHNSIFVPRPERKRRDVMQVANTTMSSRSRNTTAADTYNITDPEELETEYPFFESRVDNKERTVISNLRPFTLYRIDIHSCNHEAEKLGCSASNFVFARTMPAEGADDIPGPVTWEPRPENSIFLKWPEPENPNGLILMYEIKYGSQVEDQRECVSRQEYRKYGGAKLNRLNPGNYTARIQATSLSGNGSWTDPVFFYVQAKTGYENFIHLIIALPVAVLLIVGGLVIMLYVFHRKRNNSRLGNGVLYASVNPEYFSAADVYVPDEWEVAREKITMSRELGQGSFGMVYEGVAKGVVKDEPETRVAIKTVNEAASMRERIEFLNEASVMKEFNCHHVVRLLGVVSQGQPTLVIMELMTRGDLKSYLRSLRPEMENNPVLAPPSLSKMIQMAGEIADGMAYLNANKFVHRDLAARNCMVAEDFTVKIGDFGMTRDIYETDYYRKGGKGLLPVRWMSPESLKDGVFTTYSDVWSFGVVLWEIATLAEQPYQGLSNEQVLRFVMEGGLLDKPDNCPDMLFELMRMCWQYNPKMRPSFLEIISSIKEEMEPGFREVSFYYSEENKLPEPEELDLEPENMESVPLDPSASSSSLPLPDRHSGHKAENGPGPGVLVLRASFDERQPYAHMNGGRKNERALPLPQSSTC
Description for IGF-1R: RTK inhibitors were dissolved in DMSO and diluted with culture medium before being added to cells for 1.5 hour at 37° C. The final concentration of DMSO during the incubation was 0.3% . For some studies, cells were also stimulated with 3 nM IGF-I for 10 minutes at 37° C. Reactions were terminated by rapidly aspirating medium and washing cells three times with ice cold PBS. Cells were harvested and solubilized in 50 mM HEPES, 150 mM NaCl, 1% Triton X-100, 1 mM PMSF, and 2 mM vanadate for 1 hour at 4° C. Protein concentrations were determined by BCA assay (Pierce, Rockford, Ill.). […] Briefly, 10 μg lysate protein were added to triplicate wells in a 96-well plate coated with monoclonal antibody to the IGF-IR (IR3; 2 μg/ml), and incubated for 18 hours at 4° C. Plates were washed five times and then HRP-conjugated anti-phosphotyrosine antibody (0.3 μg/ml), diluted in Solution B (50 mM HEPES, pH 7.6, 150 mM NaCl, 0.05% Tween-20, 1 mM PMSF, 2 mM vanadate and 1 mg/ml bacitracin), was added for two hours at 22° C. Plates were washed five times prior to color development with TMB substrate, which was terminated with 1.0 M H3PO4. Values for receptor phosphorylation were determined by measuring absorbance at 450 nm.

With `COc1cc2ncnc(Nc3ccc(F)c(Cl)c3)c2cc1OCCCN1CCOCC1` [gefitinib, Gefitinib, reference compound], the “IGF-1 stimulated phosphorylation of the IGF-1R” value at IGF-1R is recorded as “only a weak inhibitory effect”.

For the molecule `CC/C(=C(\c1ccccc1)c1ccc(OCCN(C)C)cc1)c1ccccc1` [tamoxifen, reference compound], the inhibition (in general, the percentage by which the read-out fell short of the control) at 0.1 µM in the test with MCF-7/neo cells was greater than 50%; in the test on MCF-7/HER2-18 cells it was 24%.

The values are drawn from patent US8143226B2, “Tyrosine kinase receptor antagonists and methods of treatment for breast cancer” (The Regents of the University of California, priority 2005, dated 2012).
